Experimental data reported in the NIST ThermoML archive (doi:10.1021/je5005752).

Test: xn = mol fraction of the nth substance listed
Conditions: 101 kPa, Liquid; for viscosity: Falling or rolling sphere viscometry; for mass density: Vibrating tube method

CCCC(=O)OCC [ethyl butanoate] + CC(C)CO
Conditions | mass density [kg/m3] | viscosity [mPa·s]
288.15 K, x1 = 0.1 | 816.01 | 2.899
288.15 K, x1 = 0.2001 | 825.5 | 2
288.15 K, x1 = 0.3001 | 834.2 | 1.516
288.15 K, x1 = 0.3999 | 842.57 | 1.24
288.15 K, x1 = 0.5 | 850.43 | 1.057
288.15 K, x1 = 0.5999 | 857.77 | 0.9319
288.15 K, x1 = 0.7001 | 864.75 | 0.8287
288.15 K, x1 = 0.8001 | 871.45 | 0.785
288.15 K, x1 = 0.8997 | 877.93 | 0.7449
288.15 K, x1 = 1 | 884.16 | 0.7224
293.15 K, x1 = 0.1 | 811.92 | 2.51
293.15 K, x1 = 0.2001 | 821.21 | 1.768
293.15 K, x1 = 0.3001 | 829.72 | 1.363
293.15 K, x1 = 0.3999 | 837.92 | 1.129
293.15 K, x1 = 0.5 | 845.64 | 0.9727
293.15 K, x1 = 0.5999 | 852.86 | 0.8638
293.15 K, x1 = 0.7001 | 859.73 | 0.7883
293.15 K, x1 = 0.8001 | 866.33 | 0.7356
293.15 K, x1 = 0.8997 | 872.73 | 0.7006
293.15 K, x1 = 1 | 878.9 | 0.6808
298.15 K, x1 = 0.1 | 807.82 | 2.19
298.15 K, x1 = 0.2001 | 816.89 | 1.571
298.15 K, x1 = 0.3001 | 825.21 | 1.233
298.15 K, x1 = 0.3999 | 833.26 | 1.032
298.15 K, x1 = 0.5 | 840.84 | 0.8977
298.15 K, x1 = 0.5999 | 847.92 | 0.8022
298.15 K, x1 = 0.7001 | 854.69 | 0.7366
298.15 K, x1 = 0.8001 | 861.2 | 0.6907
298.15 K, x1 = 0.8997 | 867.52 | 0.6599
298.15 K, x1 = 1 | 873.62 | 0.643
303.15 K, x1 = 0.1 | 803.67 | 1.92
303.15 K, x1 = 0.2001 | 812.54 | 1.406
303.15 K, x1 = 0.3001 | 820.68 | 1.118
303.15 K, x1 = 0.3999 | 828.56 | 0.9462
303.15 K, x1 = 0.5 | 836 | 0.8309
303.15 K, x1 = 0.5999 | 842.97 | 0.7472
303.15 K, x1 = 0.7001 | 849.63 | 0.6895
303.15 K, x1 = 0.8001 | 856.05 | 0.6488
303.15 K, x1 = 0.8997 | 862.29 | 0.6217
303.15 K, x1 = 1 | 868.33 | 0.6072
308.15 K, x1 = 0.1 | 799.49 | 1.693
308.15 K, x1 = 0.2001 | 808.15 | 1.262
308.15 K, x1 = 0.3001 | 816.12 | 1.018
308.15 K, x1 = 0.3999 | 823.84 | 0.8702
308.15 K, x1 = 0.5 | 831.14 | 0.7709
308.15 K, x1 = 0.5999 | 837.99 | 0.6967
308.15 K, x1 = 0.7001 | 844.55 | 0.6458
308.15 K, x1 = 0.8001 | 850.88 | 0.6101
308.15 K, x1 = 0.8997 | 857.04 | 0.5862
308.15 K, x1 = 1 | 863.02 | 0.5736
313.15 K, x1 = 0.1 | 795.27 | 1.501
313.15 K, x1 = 0.2001 | 803.72 | 1.137
313.15 K, x1 = 0.3001 | 811.51 | 0.9295
313.15 K, x1 = 0.3999 | 819.09 | 0.8021
313.15 K, x1 = 0.5 | 826.25 | 0.7166
313.15 K, x1 = 0.5999 | 832.98 | 0.6507
313.15 K, x1 = 0.7001 | 839.44 | 0.6059
313.15 K, x1 = 0.8001 | 845.69 | 0.5742
313.15 K, x1 = 0.8997 | 851.78 | 0.5531
313.15 K, x1 = 1 | 857.7 | 0.5425
318.15 K, x1 = 0.1 | 791 | 1.337
318.15 K, x1 = 0.2001 | 799.25 | 1.029
318.15 K, x1 = 0.3001 | 806.87 | 0.8513
318.15 K, x1 = 0.3999 | 814.29 | 0.7413
318.15 K, x1 = 0.5 | 821.33 | 0.6676
318.15 K, x1 = 0.5999 | 827.95 | 0.6086
318.15 K, x1 = 0.7001 | 834.31 | 0.569
318.15 K, x1 = 0.8001 | 840.47 | 0.5409
318.15 K, x1 = 0.8997 | 846.5 | 0.5224
318.15 K, x1 = 1 | 852.36 | 0.5132
323.15 K, x1 = 0.1 | 786.67 | 1.219
323.15 K, x1 = 0.2001 | 794.73 | 0.9403
323.15 K, x1 = 0.3001 | 802.18 | 0.785
323.15 K, x1 = 0.3999 | 809.46 | 0.6914
323.15 K, x1 = 0.5 | 816.36 | 0.6257
323.15 K, x1 = 0.5999 | 822.87 | 0.5716
323.15 K, x1 = 0.7001 | 829.14 | 0.5382
323.15 K, x1 = 0.8001 | 835.23 | 0.5126
323.15 K, x1 = 0.8997 | 841.18 | 0.4958
323.15 K, x1 = 1 | 847 | 0.487
